Results taken from paper PMC4117758 (2014).

What was measured:
Assay in all cases: Job plot, absorption and fluorescence
Details in all cases: 150 mM KCl; 10 mM Tris-HCl pH 7.4, 1 mM Na2EDTA, 400 ml/l PEG 200; 5 μM total
[1] = test system: Hum21 (DNA, G4) GGGTTAGGGTTAGGGTTAGGG
[2] = test system: Hum45 (DNA, G4) GGGTTAGGGTTAGGGTTAGGGTTAGGGTTAGGGTTAGGGTTAGGG
[3] = test system: Hum51 (DNA, G4) GGGTTAGGGTTAGGGTTAGGGTTAGGGTTAGGGTTAGGGTTAGGGTTAGGG
[4] = test system: Hum51-M1 (DNA, G4) GGGTTAGGGTTAGGGTTAGGGTTAGGGTTAGGGTTAGGGTTAGGGTGTGAG
[5] = test system: Hum51-M2 (DNA, G4) GGGTTAGGGTTAGGGTTAGGGTTGAGTGTAGGGTTAGGGTTAGGGTTAGGG
[6] = test system: Hum57 (DNA, G4) GGGTTAGGGTTAGGGTTAGGGTTAGGGTTAGGGTTAGGGTTAGGGTTAGGGTTAGGG
[7] = test system: Hum57-M1 (DNA, G4) GGGTTAGGGTTAGGGTTAGGGTTAGGGTTAGGGTTAGGGTTAGGGTGTGAGTGTGAG
[8] = test system: Hum57-M2 (DNA, G4) GGGTTAGGGTTAGGGTTAGGGTTGAGTGTAGGGTTAGGGTTAGGGTTAGGGTGTGAG
[9] = test system: Hum57-M3 (DNA, G4) GGGTTAGGGTTAGGGTTAGGGTTGAGTGTGAGTGTAGGGTTAGGGTTAGGGTTAGGG
[10] = test system: Hum63 (DNA, G4) GGGTTAGGGTTAGGGTTAGGGTTAGGGTTAGGGTTAGGGTTAGGGTTAGGGTTAGGGTTAGGG
[11] = test system: Hum69 (DNA, G4) GGGTTAGGGTTAGGGTTAGGGTTAGGGTTAGGGTTAGGGTTAGGGTTAGGGTTAGGGTTAGGGTTAGGG

Measured: binding

C[N+]1(CCOc2ccc(-c3c4nc(c(-c5ccc(OCC[N+]6(C)CCCCC6)cc5)c5ccc([nH]5)c(-c5ccc(OCC[N+]6(C)CCCCC6)cc5)c5nc(c(-c6ccc(OCC[N+]7(C)CCCCC7)cc6)c6ccc3[nH]6)C=C5)C=C4)cc2)CCCCC1
yes: all assays above
